According to patent publication US20240300980A1, “HETEROCYCLIC COMPOUNDS AS KRAS INHIBITOR, AND PREPARATION THEREFOR AND USE THEREOF IN TREATMENT” (SHANGHAI KECHOW PHARMA, INC., priority 2021, published 2024):
pIC50: −log10 of the molar value. Read-outs that look alike come from different tables or passages of the source.

Test system: AGS cells (KRAS^G12D)
Experiment: Detection of cell proliferation in vitro by MTT/MTS method (cell activity experiment)
Assay type: cell-based
Details: AGS cells, MTT/MTS, 3 days of drug treatment, read-out: AGS IC50
Method: The above cells were cultured in a complete medium containing 10% fetal bovine serum, 100 IU/mL penicillin and 100 jag/mL streptomycin, in the aseptic incubator with 95% relative humidity and 5% CO2 concentration.
2. Reagents: F12K, D-PBS, FBS, Penicillin Streptomycin, Tryple, MTT (5 mg/mL)
Appropriate amount of compound powder was weighed in a 1.5 mL centrifuge tube, then the corresponding volume of dimethyl sulfoxide (DMSO) was added to form a 20 mM reserve solution. The solution was packed separately and stored in a refrigerator at −20° C. away from light.
The cells were inoculated in a cell culture bottle, added an appropriate amount of complete medium, and cultured in a sterile incubator. When the degree of cell confluence reached more than 80%, subculture was carried out.
The adherent cells in logarithmic growth phase were digested by trypsin or the suspension cells were collected by centrifugation and counted. 90 μL cell suspension was inoculated into 96-well plate according to the cell inoculation density of 1000 cells per well, and 10 μL of 10-fold final concentration compound diluted by culture medium was added 24 hours later. Compared with the hole with the same volume of 5% DMSO as control, the final concentration of DMSO was 0.5%. After 3 days of drug treatment, the cell viability was detected by MTT. The specific methods are as follows: 10 μL MTT per well was added into the incubator for 4 hours, the supernatant was discarded and 150 μL DMSO was added to dissolve the crystal methylazan, and the absorbance of 490 nm was detected by enzyme labeling instrument, or 10 μL MITS per well was added to the incubator for 4 hours, and […] absorbance was detected directly by enzyme labeling instrument. GraphPad Prism 6 software makes dose-effect curve and calculates IC50.

SMILES	pIC50 (Homo sapiens, AGS, 72 h)	pIC50
Oc1cc(N2CCc3c(nc(OC[C@@]45CCCN4C[C@H](F)C5)nc3N3C[C@H]4CC[C@@H](C3)N4)C2)c2c(Cl)c(F)ccc2c1 [Example 208, 4-(4-((1R,5S)-3,8-diazabicyclo[3.2.1]octan-3-yl)-2-(((2R,7aS)-2-fluorotetrahydro-1H-pyrrolizin-7a(5H)-yl)methoxy)-5,8-dihydropyrido[3,4-d]pyrimidin-7(6H)-yl)-5-chloro-6-fluoronaphthalen-2-ol]	7.70	
OCC1CCc2cc(O)cc(-c3ncc4c(N5C[C@H]6CC[C@@H](C5)N6)nc(OC[C@@]56CCCN5C[C@H](F)C6)nc4c3F)c21 (stereo partly drawn) [Example 265, 7-(4-((1R,5S)-3,8-diazabicyclo[3.2.1]octan-3-yl)-8-fluoro-2-(((2R,7aS)-2-fluorotetrahydro-1H-pyrrolizin-7a(5H)-yl)methoxy)pyrido[4,3-d]pyrimidin-7-yl)-1-(hydroxymethyl)-2,3-dihydro-1H-inden-5-ol]	< 5.00	
C#CC1CCCc2cc(O)cc(-c3ncc4c(N5C[C@H]6CC[C@@H](C5)N6)nc(OC[C@@]56CCCN5C[C@H](F)C6)nc4c3F)c21 (stereo partly drawn) [Example 248, 4-(4-((1R,5S)-3,8-diazabicyclo[3.2.1]octan-3-yl)-8-fluoro-2-(((2R,7aS)-2-fluorotetrahydro-1H-pyrrolizin-7a(5H)-yl)methoxy)pyrido[4,3-d]pyrimidin-7-yl)-5-ethynyl-5,6,7,8-tetrahydronaphthalen-2-ol]	8.17	
CCc1cccc2cc(O)cc(-c3ccc4c(N5C[C@H]6CC[C@@H](C5)N6)nc(OCC5(CN6CCCC6)CC5)nc4c3F)c12 [Example 104, 4-(4-((1R,5S)-3,8-diazabicyclo[3.2.1]octan-3-yl)-8-fluoro-2-((1-(pyrrolidin-1-ylmethyl)cyclopropyl)methoxy)quinazolin-7-yl)-5-ethylnaphthalen-2-ol]	7.24	
C#Cc1c(F)ccc2cc(O)cc(-c3ncc4c(N5CC6CCC(C5)[S+]6[O-])nc(OC[C@@]56CCCN5C[C@H](F)C6)nc4c3F)c12 (stereo partly drawn) [Example 22, (1R,5S,8R)-3-(7-(8-ethynyl-7-fluoro-3-hydroxynaphthalen-1-yl)-8-fluoro-2-(((2R,7aS)-2-fluorotetrahydro-1H-pyrrolizin-7a(5H)-yl)methoxy)pyrido [4,3-d]pyrimidin-4-yl)-8-thia-3-azabicyclo [3.2.1]octane 8-oxide]	5.40	
CN1CCCc2cc(O)cc(-c3ncc4c(N5C[C@H]6CC[C@@H](C5)N6)nc(OC[C@@]56CCCN5C[C@H](F)C6)nc4c3F)c21 [Example 359, 8-(4-((1R,5S)-3,8-diazabicyclo[3.2.1]octan-3-yl)-8-fluoro-2-(((2R,7aS)-2-fluorotetrahydro-1H-pyrrolizin-7a(5H)-yl)methoxy)pyrido[4,3-d]pyrimidin-7-yl)-1-methyl-1,2,3,4-tetrahydroquinolin-6-ol]	7.46	
CC1CCCc2cc(O)cc(-c3c4c(c5c(N6C[C@H]7CC[C@@H](C6)N7)nc(OC[C@@]67CCCN6C[C@H](F)C7)nc5c3F)OCO4)c21 (stereo partly drawn) [Example 391, 4-(9-((1R,5S)-3,8-diazabicyclo[3.2.1]octan-3-yl)-5-fluoro-7-(((2R,7aS)-2-fluorotetrahydro-1H-pyrrolizin-7a(5H)-yl)methoxy)-[1,3]dioxolo[4,5-f]quinazolin-4-yl)-5-methyl-5,6,7,8-tetrahydronaphthalen-2-ol]	7.00	
C#Cc1cccc2cc(O)cc(-c3ncc4c(N5CCC6(CCCN6)CC5)nc(OC[C@@]56CCCN5C[C@H](F)C6)nc4c3F)c12 [Example 48, 5-ethynyl-4-(8-fluoro-2-(((2R,7aS)-2-fluorotetrahydro-1H-pyrrolizin-7a(5H)-yl)methoxy)-4-(1,8-diazaspiro[4.5]decan-8-yl)pyrido[4,3-d]pyrimidin-7-yl) naphthalen-2-ol]	5.29	
CCC1CCCc2cc(O)cc(-c3c(Cl)cc4c(N5C[C@H]6CC[C@@H](C5)N6)nc(OC[C@@]56CCCN5C[C@H](F)C6)nc4c3F)c21 (stereo partly drawn) [Example 303, 4-(4-((1R,5S)-3,8-diazabicyclo[3.2.1]octan-3-yl)-6-chloro-8-fluoro-2-(((2R,7aS)-2-fluorotetrahydro-1H-pyrrolizin-7a(5H)-yl)methoxy)quinazolin-7-yl)-5-ethyl-5,6,7,8-tetrahydronaphthalen-2-ol]	7.66	
Oc1cc(Cl)c(C2CC2)c(-c2ncc3c(N4C[C@H]5CC[C@@H](C4)N5)nc(OCC4(CN5CCCC5)CC4)nc3c2F)c1 [Example 10, 3-(4-((1R,5S)-3,8-diazabicyclo[3.2.1]octan-3-yl)-8-fluoro-2-((1-(pyrrolidin-1-ylmethyl)cyclopropyl)methoxy)pyrido[4,3-d]pyrimidin-7-yl)-5-chloro-4-cyclopropylphenol]	7.77	
CCC1CCc2cc(O)cc(-c3ccc4c(N5C[C@H]6CC[C@@H](C5)N6)nc(OC[C@@]56CCCN5C[C@H](F)C6)nc4c3F)c21 (single isomer, unassigned) [Example 284]		5.66
C#Cc1c(F)ccc2cc(O)cc(-c3ncc4c(C5C[C@H]6CC[C@@H](C5)N6)nc(OC[C@@]56CCCN5C[C@H](F)C6)nc4c3F)c12 (stereo partly drawn) [Example 79, 4-(4-((1R,5S)-8-azabicyclo[3.2.1]octan-3-yl)-8-fluoro-2-(((2R,7aS)-2-fluorotetrahydro-1H-pyrrolizin-7a(5H)-yl)methoxy)pyrido[4,3-d]pyrimidin-7-yl)-5-ethynyl-6-fluoronaphthalen-2-ol]	< 5.60	
CCc1coc2cc(O)cc(-c3ccc4c(N5C[C@H]6CC[C@@H](C5)N6)nc(OC[C@@]56CCCN5C[C@H](F)C6)nc4c3F)c12 [Example 293, 4-(4-((1R,5S)-3,8-diazabicyclo[3.2.1]octan-3-yl)-8-fluoro-2-(((2R,7aS)-2-fluorotetrahydro-1H-pyrrolizin-7a(5H)-yl)methoxy)quinazolin-7-yl)-3-ethylbenzofuran-6-ol]	6.92	
CCC1CCc2cc(O)cc(-c3ccc4c(N5C[C@H]6CC[C@@H](C5)N6)nc(OC[C@@]56CCCN5C[C@H](F)C6)nc4c3F)c21 (single isomer, unassigned) [Example 285]		8.15
C#Cc1c(F)ccc2cc(O)cc(-c3cc4nc(OC[C@@]56CCCN5C[C@H](F)C6)c(C#N)c(N5C[C@H]6CC[C@@H](C5)N6)c4cn3)c12 [Example 188, 4-((1R,5S)-3,8-diazabicyclo[3.2.1]octan-3-yl)-7-(8-ethynyl-7-fluoro-3-hydroxynaphthalen-1-yl)-2-(((2R,7aS)-2-fluorotetrahydro-1H-pyrrolizin-7a(5H)-yl)methoxy)-1,6-naphthyridine-3-carbonitrile]	5.81	
Oc1cc(-c2ccc3c(N4C[C@H]5CC[C@@H](C4)N5)nc(OC[C@@]45CCCN4C[C@H](F)C5)nc3c2F)c2c(c1)C1CC1C2 (stereo partly drawn) [Example 294, 5-(4-((1R,5S)-3,8-diazabicyclo[3.2.1]octan-3-yl)-8-fluoro-2-(((2R,7aS)-2-fluorotetrahydro-1H-pyrrolizin-7a(5H)-yl)methoxy)quinazolin-7-yl)-1,1a,6,6a-tetrahydrocyclopropa[a]inden-3-ol]	7.19	
CCc1c(F)ccc2cc(O)cc(-c3ccc4c(N5C[C@H]6CC[C@@H](C5)N6)c(C#N)c(OC[C@@]56CCCN5C[C@H](F)C6)nc4c3)c12 [Example 172, 4-((1R,5S)-3,8-diazabicyclo[3.2.1]octan-3-yl)-7-(8-ethyl-7-fluoro-3-hydroxynaphthalen-1-yl)-2-(((2R,7aS)-2-fluorotetrahydro-1H-pyrrolizin-7a(5H)-yl)methoxy)quinoline-3-carbonitrile]	5.91	
C#Cc1c(F)ccc2cc(O)cc(-c3ccc4c(N5C[C@H]6CC[C@@H](C5)N6)nc(OC[C@@]56CCCN5C[C@H](F)C6)nc4n3)c12 [Example 140, 4-(4-((1R,5S)-3,8-diazabicyclo[3.2.1]octan-3-yl)-2-(((2R, 7aS)-2-fluorotetrahydro-1H-pyrrolizin-7a(5H)-yl)methoxy)pyrido[2,3-d]pyrimidin-7-yl)-5-ethynyl-6-fluoronaphthalen-2-ol]	< 5.60	
C#Cc1c(F)ccc2cc(O)cc(-c3ncc4c(-c5cnn(C(=O)CO)c5)nc(OC[C@@]56CCCN5C[C@H](F)C6)nc4c3F)c12 [Example 87, 1-(4-(7-(8-ethynyl-7-fluoro-3-hydroxynaphthalen-1-yl)-8-fluoro-2-(((2R, 7aS)-2-fluorotetrahydro-1H-pyrrolizin-7a(5H)-yl)methoxy)pyrido[4,3-d]pyrimidin-4-yl)-1H-pyrazol-1-yl)-2-hydroxyethan-1-one]	< 5.00	
Oc1ccc2c(C#Cc3ncc4c(N5C[C@H]6CC[C@@H](C5)N6)nc(OC[C@@]56CCCN5C[C@H](F)C6)nc4c3F)c(F)ccc2c1 [Example 368, 5-((4-((1R,5S)-3,8-diazabicyclo[3.2.1]octan-3-yl)-8-fluoro-2-(((2R,7aS)-2-fluorotetrahydro-1H-pyrrolizin-7a(5H)-yl)methoxy)pyrido[4,3-d]pyrimidin-7-yl)ethynyl)-6-fluoronaphthalen-2-ol]	7.26	
